Assay results from patent US20150335548A1, “Oral Care Composition” (COLGATE-PALMOLIVE COMPANY, priority 2012, published 2015).
“Also recorded” adds a separate entry of the source.

Columns and labels:
dental plaque = experiment: Dissolution of plaque; settings: water-insoluble plaque vortex mixed with ionic liquid at room temperature, centrifuged at 13,000 g
Procedure: Dental plaque samples were obtained from subjects and treated with water to remove any water soluble actives. The samples were centrifuged at 13,000 g and the supernatant was collected and discarded. The remaining plaque that was insoluble in water was used to evaluate the plaque solubilizing potential of the ionic liquids.
Ionic liquids were added to the plaque sample, and the plaque sample was vortex mixed at room temperature. To ensure that the plaque was not simply suspended in the ionic liquid, the plaque containing vial with the ionic liquid was subsequently centrifuged at 13,000 g.
Plaque may form a suspension when mixed with water and that, on centrifugation, it is visible as an insoluble pellet.

[1] = tested on: 3-day old biofilm of the artificial mouth consortium of bacteria (A. naeslundii, S. oralis, V. parvula, L. casei, F. nucleatum) and S. mutans; experiment: In vitro biofilm removal, 3-day old biofilm (protocol of Example 2); assay type: cell-based
Procedure: The 3-day old biofilm was grown on a 24 well plate using the artificial mouth consortium of bacteria (A. naeslundii, S. oralis, V. parvula, L. casei, F. nucleatum) and S. mutans. To generate the biofilm, plates were inoculated with saliva overnight to form a pellicle. The consortium of bacteria (1 mL) at an OD of ˜0.2 was added to each well. The bacterial media (Tryptic Soy Broth with 6% sucrose) was changed after 48 hours. The 3-day old biofilm was treated with the prototype formulation (500 μL) for 15 minutes on a plate shaker at 300 rpm. After incubation, the supernatant was discarded. The optical density of each well was measured and the percentage reduction in optical density relative to the control (water) was calculated to determine the effect of the prototype formulation on biofilm removal. […]
Water, untreated biofilm, commercially available mouthwash formulations with CPC (Cetyl pyridinium chloride) and a mouthwash containing five enzymes for combatting biofilm acted as […] for the experiment.

A. viscosus [2] = experiment: Growth inhibition of A. viscosus (optical density over time); assay type: cell-based; settings: for optical density of A. viscosus culture, 0 h / optical density of A. viscosus culture, 4 h / optical density of A. viscosus culture, 22 h / optical density of A. viscosus culture, 24 h: 10% concentration in a mouth rinse
Procedure: The effects of 1-decyl-3-methylimidazolium (DMIM) chloride on bacterial growth were investigated in vitro. DMIM chloride was incorporated into a prototype mouth rinse as illustrated in Table 17. […] The growth inhibition was measured as a change in optical density over time.
The antibacterial effects of various ionic liquids were determined according to the protocol described in Example 12.

[3] = Teeth whitening, in-vitro removal of tooth stains (one hour soak); set-up: species or system human; settings: 1M in prototype mouth wash of Table 7
Procedure: The method of determining the effects of imidazolium-based ionic liquids on teeth whitening was carried out as follows:
The initial L*a*b* measurements of dried artificially stained human teeth were captured. The teeth were then soaked in 1 ml of sample solution for one hour, and sample was replenished at 30 minutes. After treatment, teeth were soaked in DI water for approximately 10 minutes. The teeth were left to dry at least overnight, and final L*a*b* measurements were then taken. (L*a*b* refers to stain score in accordance with the Commission International de L'Eclairage Laboratory (CIELAB) color scale. L* (lightness-darkness scale), a* (red-green chroma) and b* (yellow-blue chroma)).
The whitening efficacy was determined as follows:
All the EMIM-based compounds were evaluated at 1M concentration in a prototype mouth wash formulation as illustrated in Table 7.

A. viscosus [4] = experiment: Short Interval Kill Test (SIKT); assay type: cell-based; settings: 0.3, 0.6 and 1 wt % in the prototype mouth rinse
Source text: SIKT determines the kill effect of a test article at a predetermined exposure time. […] The reaction was neutralized after 30 seconds by adding a neutralizing broth. The reaction mixture was further diluted and plated on MCA (Microbial Count Agar) plates for viable bacterial count.

[5] = EMIM-based ionic liquids, […] in base prototype mouth rinse of Table 1, 3-day old biofilm

## CCn1cc[n+](C)c1.[Br-] [EMIM Br, 1-ethyl-3-methylimidazolium bromide]
Dental plaque
  plaque dissolution (size of plaque pellet, visual): size of the plaque pellet is reduced
[1]; [5]
  Percent Biofilm Removed: 48.6%
A. viscosus [2]
  optical density of A. viscosus culture, 0 h: 0.1482
  optical density of A. viscosus culture, 4 h: 0.2216
  optical density of A. viscosus culture, 22 h: 0.7598
  optical density of A. viscosus culture, 24 h: 0.8533

## CCOS(=O)(=O)[O-].CCn1cc[n+](C)c1 [EMIM Ethyl SO4, EMIM ethyl sulfate]
[1]; [5]
  Percent Biofilm Removed: 48.1%
[1]; […] ionic liquid in base prototype mouth rinse of Table 1, 15 minutes, relative to water control
  Percent Removal of a 3-day Oral Biofilm: 48.1%
[3]
  ΔE: 4.41
  ΔL: 3.40
  ΔW: −2.99
A. viscosus [2]
  optical density of A. viscosus culture, 0 h: 0.1482
  optical density of A. viscosus culture, 4 h: 0.2499
  optical density of A. viscosus culture, 22 h: 0.7514
  optical density of A. viscosus culture, 24 h: 0.7965

## CCCCCCCCCCn1cc[n+](C)c1.[Cl-] [DMIM Cl, 1-decyl-3-methylimidazolium chloride]
[1]; 3-day old biofilm, listed as DMIM chloride
  biofilm removal, comparison in words: significantly more effective in removing biofilm than EMIM chloride and BMIM chloride; also recorded: most effective in removing biofilm
[1]; other ionic liquids, 3-day old biofilm
  Percent Biofilm Removed: 57.3%
A. viscosus [2]; formulated at 0.312 wt %
  growth inhibition of A. viscosus, in words: growth inhibition of A. viscosus is maintained
A. viscosus [2]; formulated at 1 wt % in prototype mouth rinse of Table 17
  growth inhibition of A. viscosus, in words: greater growth inhibition of A. viscosus than a 0.075 wt % CPC mouthwash
A. viscosus [4]
  time to kill A. viscosus: ≤ 30 s
